Results: patent US4361573A, “α,α-Diaryl-β-(tert-amino)-propanols and diuretic pharmaceutical compositions containing them” (Temmler AG, priority 1974, dated 1982)
Read-outs that look alike come from different tables or passages of the source.

What was measured:
[1] = saluretic efficiency test in rats: elimination of water, sodium, chloride and potassium in 6 h urine after oral dosing; format: in vivo; conditions: rats, oral; for change in vivo at 40 µmol/kg / change in vivo at 80 µmol/kg: Rattus norvegicus
Procedure: In order to test the saluretic efficiency of the compounds of the invention rats having a weight of 150 to 200 g were used. The animals were kept without food, but not without drinking water, for 15 hours before the beginning of the test. The test substances were administered to groups of four rats, of substantially equal weight, with a rigid stomach probe in a 1% methyl cellulose slime. The dose required per 100 g animal (unit dosage in μmol/kg body weight) was contained in one ml. Following the administration of the substance the rats were given 5 ml 0.9% sodium chloride solution per 100 g body weight p.o. and placed in a diuresis funnel after manually emptying the bladder. Urine was collected for 6 hours in an airconditioned chamber at 24°±1° C. and a relative air humidity of 50±5%. The diuretic effect of a particular dose was tested on at least two, but more frequently however on four to eight groups of rats. Two sodium chloride controls were also used for each test day.
At the end of the collecting periods the volumes of urine discharged per group were noted and the pH value and also the content of sodium, potassium (flame-photometrically) and chloride (measured argentometrically with the determination of the end point potentiometrically) were determined.
From the analysis results the quantities of Na^+, K^+ and Cl^- eliminated were calculated in […] body weight, and the values thus obtained compared with those of the control animals.
Means values and twice the standard deviation were calculated from the data for the sodium chloride controls, in order to determine the normal range. Then, for the values found with the test substances, the percentage variations from the average in respect of these parameters were calculated and tabulated. In this connection, with the results given in Table 1, the upper limit of the normal range, which is defined as the mean value plus twice the standard deviation, was selected as the reference quantity for the variations. In this way relevant hyper-eliminations could clearly be recognised.
In Table 2, the mean percentage variations in potassium elimination after administration of the compounds in accordance with the invention are compared with the mean value of the potassium elimination in the case of the sodium chloride controls. At the same time the […] ratio is given which provides conclusive evidence of the effective saluretic property. The larger this quotient is, then the more sodium than potassium is eliminated in proportion.

[2] = comparison of toxicity in mice: oral LD50 by the Lichtfiel & Wilcoxon method; format: in vivo; conditions: mouse, in vivo, observation period 7 days, 95% confidence limit in brackets, read-out: LD50
Source text: In Table 3 the mean lethal doses for mice, administered orally (LD50 determination by the […] & WILCOXON method - J.Pharmacol. Exp. Ther. 96,98 (1949)) are compared.

[3] = 6 h, 40 μmol/kg body wt., relative to mean K+ elimination of the controls, read-out: Mean percentage variation in the elimination of potassium
[4] = 6 h, 80 μmol/kg body wt., relative to mean K+ elimination of the controls, read-out: Mean percentage variation in the elimination of potassium
[5] = 40 μmol/kg body wt., deviation from control mean plus twice the standard deviation, 6 h urine, read-out: Mean percentage variation in the elimination of Chloride
[6] = 40 μmol/kg body wt., deviation from control mean plus twice the standard deviation, 6 h urine, read-out: Mean percentage variation in the elimination of H2O
[7] = 40 μmol/kg body wt., deviation from control mean plus twice the standard deviation, 6 h urine, read-out: Mean percentage variation in the elimination of Sodium
[8] = 80 μmol/kg body wt., deviation from control mean plus twice the standard deviation, 6 h urine, read-out: Mean percentage variation in the elimination of Chloride
[9] = 80 μmol/kg body wt., deviation from control mean plus twice the standard deviation, 6 h urine, read-out: Mean percentage variation in the elimination of H2O
[10] = 80 μmol/kg body wt., deviation from control mean plus twice the standard deviation, 6 h urine, read-out: Mean percentage variation in the elimination of Sodium

Compound `COc1c(C)cc(C(O)(c2cc(C(C)C)c(OC)c(C(C)C)c2)C(C)N2CCCCC2)cc1C` (stereo not shown) [T 2266, 1-(4'-methoxy-3',5'-diisopropylphenyl)-1-(4"-methoxy-3",5"-dimethylphenyl)-2-piperidinopropan-1-ol] has a change in vivo at 40 µmol/kg [1, 3] of -2%, a change in vivo at 80 µmol/kg [1, 4] of 4% and a change in vivo at 40 µmol/kg [1, 5] of -13.2%. For the same compound, the change in vivo at 40 µmol/kg [1, 6] was -12.9%, the change in vivo at 40 µmol/kg [1, 7] was -7.7% and the change in vivo at 80 µmol/kg [1, 8] was 12.2%. The change in vivo at 80 µmol/kg [1, 9] was 19.7%, the change in vivo at 80 µmol/kg [1, 10] was 19.4% and the “Quotient Na/K” value ([1]; 40 μmol/kg body wt.) was 5.59. For the same compound, the “Quotient Na/K” value ([1]; 80 μmol/kg body wt.) was 6.81 and the LD50 [2] was over 3200 mg/kg.

Compound `CCOc1c(C(C)C)cc(C(O)(c2ccc(OC)cc2)C(C)N2CCCCC2)cc1C(C)C` (stereo not shown) [T 2310] has a change in vivo at 40 µmol/kg [1, 3] of 14.3%, a change in vivo at 80 µmol/kg [1, 4] of -2% and a change in vivo at 40 µmol/kg [1, 5] of 8.9%. For the same compound, the change in vivo at 40 µmol/kg [1, 6] was 41.3%, the change in vivo at 40 µmol/kg [1, 7] was 27.3% and the change in vivo at 80 µmol/kg [1, 8] was 36.3%. The change in vivo at 80 µmol/kg [1, 9] was 67.9%, the change in vivo at 80 µmol/kg [1, 10] was 42.3% and the “Quotient Na/K” value ([1]; 40 μmol/kg body wt.) was 6.62. The “Quotient Na/K” value ([1]; 80 μmol/kg body wt.) was 8.64 and the LD50 [2] was 520 mg/kg.

In the case of `COc1c(C(C)C)cc(Cl)c(C)c1C(O)(c1ccccc1)C(C)N1CCCC1` (stereo not shown) [T 2350, 1-(3'-chloro-6'-methoxy-2'-methyl-5'-isopropylphenyl)-1-phenyl-2-pyrriolidino-propan-1-ol], the change in vivo at 40 µmol/kg [1, 3] is reported as -2%, the change in vivo at 80 µmol/kg [1, 4] is reported as 25.5% and the change in vivo at 40 µmol/kg [1, 5] is reported as 2.6%. For the same compound, the change in vivo at 40 µmol/kg [1, 6] was 24.1%, the change in vivo at 40 µmol/kg [1, 7] was 15.5% and the change in vivo at 80 µmol/kg [1, 8] was 21.2%. For the same compound, the change in vivo at 80 µmol/kg [1, 9] was 49.8%, the change in vivo at 80 µmol/kg [1, 10] was 40.5% and the “Quotient Na/K” value ([1]; 40 μmol/kg body wt.) was 7.00. For the same compound, the “Quotient Na/K” value ([1]; 80 μmol/kg body wt.) was 6.65 and the LD50 [2] was over 4500 mg/kg.

In the case of `C=CCc1cc2c(cc1C(O)(c1ccc(OC)cc1)C(C)N1CCCCC1)OCO2` (stereo not shown) [T 2378, 1-(3',4'-methylenedioxy-6'-allylphenyl)-1-(4"-methoxyphenyl)-2-piperidino-propane-1-ol], the change in vivo at 40 µmol/kg [1, 3] is reported as 11.2%, the change in vivo at 80 µmol/kg [1, 4] is reported as 32.7% and the change in vivo at 40 µmol/kg [1, 5] is reported as -5.6%. The change in vivo at 40 µmol/kg [1, 6] was 6.7%, the change in vivo at 40 µmol/kg [1, 7] was 6.7% and the change in vivo at 80 µmol/kg [1, 8] was -20.4%. For the same compound, the change in vivo at 80 µmol/kg [1, 9] was 39.6%, the change in vivo at 80 µmol/kg [1, 10] was 45% and the “Quotient Na/K” value ([1]; 40 μmol/kg body wt.) was 5.70. For the same compound, the “Quotient Na/K” value ([1]; 80 μmol/kg body wt.) was 6.49 and the LD50 [2] was 1600 mg/kg.

`CCOc1ccc(C(O)(c2cc(C(C)C)c(OCC)c(C(C)C)c2)C(C)N2CCCCC2)cc1` (stereo not shown) [T 2453, 1-(4'-ethoxy-3',5'-diisopropylphenyl)-1-(4"-ethoxyphenyl)-2-piperidino-propan-1-ol] gave a change in vivo at 40 µmol/kg [1, 3] of -2%, a change in vivo at 40 µmol/kg [1, 5] of 6.9% and a change in vivo at 40 µmol/kg [1, 6] of 13.4%. The change in vivo at 40 µmol/kg [1, 7] was 7.6%, the change in vivo at 80 µmol/kg [1, 8] was 31.2% and the change in vivo at 80 µmol/kg [1, 9] was 51.7%. For the same compound, the change in vivo at 80 µmol/kg [1, 10] was 62.2%, the “Quotient Na/K” value ([1]; 40 μmol/kg body wt.) was 6.52 and the “Quotient Na/K” value ([1]; 80 μmol/kg body wt.) was 9.63. It also gave an LD50 [2] of 700 mg/kg.

Compound `COc1ccc(C(O)(c2cc(C(C)(C)C)cc(C)c2OC)C(C)N2CCCCC2)c(OC)c1` (stereo not shown) [T 2455, 1-(2'-methoxy-3'-methyl-5'-tertiary-butylphenyl)-1-(2",4"-dimethoxyphenyl)-2-piperidino-propan-1-ol] has a change in vivo at 40 µmol/kg [1, 3] of 13.3%, a change in vivo at 80 µmol/kg [1, 4] of -23.5% and a change in vivo at 40 µmol/kg [1, 5] of 21.4%. It also gave a change in vivo at 40 µmol/kg [1, 6] of 39.8%, a change in vivo at 40 µmol/kg [1, 7] of 31.3% and a change in vivo at 80 µmol/kg [1, 8] of 34.8%. For the same compound, the change in vivo at 80 µmol/kg [1, 9] was 62.4%, the change in vivo at 80 µmol/kg [1, 10] was 55.8% and the “Quotient Na/K” value ([1]; 40 μmol/kg body wt.) was 6.88. For the same compound, the “Quotient Na/K” value ([1]; 80 μmol/kg body wt.) was 12.93 and the LD50 [2] was 4550 mg/kg.

Work on `COc1ccc(C(O)(c2cc(C(C)(C)C)cc(C)c2OC)C(C)N2CCCCC2)cc1OC` (stereo not shown) [T 2464, 1-(2'-methoxy-3'-methyl-5'-tertiary-butylphenyl)-1-(3",4"-dimethoxyphenyl)-2-piperidinopropan-1-ol] yielded a change in vivo at 40 µmol/kg [1, 3] of 9.2%, a change in vivo at 80 µmol/kg [1, 4] of -1% and a change in vivo at 40 µmol/kg [1, 5] of 30.4%. For the same compound, the change in vivo at 40 µmol/kg [1, 6] was 49.8%, the change in vivo at 40 µmol/kg [1, 7] was 64.4% and the change in vivo at 80 µmol/kg [1, 8] was 38.3%. For the same compound, the change in vivo at 80 µmol/kg [1, 9] was 65.9%, the change in vivo at 80 µmol/kg [1, 10] was 79% and the “Quotient Na/K” value ([1]; 40 μmol/kg body wt.) was 8.94. For the same compound, the “Quotient Na/K” value ([1]; 80 μmol/kg body wt.) was 10.74 and the LD50 [2] was over 4550 mg/kg.
